Paper PMC7033671 (ACS Omega, 2020)

Experiments:
[1] = system: KCL22; assay: CellTiter-Blue cell viability, KCL22; format: cell-based, human; conditions: for IC50: Homo sapiens, KCL-22, 72 h, read-out: IC50 against KCL22
[2] = system: KCL22-IR; assay: CellTiter-Blue cell viability, KCL22-IR; format: cell-based, human; conditions: for IC50: Homo sapiens, 72 h, read-out: IC50 against KCL22-IR
[3] = system: K562; assay: CellTiter-Blue cell viability, K562; format: cell-based, human; conditions: for IC50: Homo sapiens, K562, 72 h, read-out: IC50 against K562
[4] = molecular target: T1, FLT3 (ITD) (Homo sapiens, UniProt P36888, ITD); assay: Reaction Biology 33P-ATP kinase assay, FLT3; conditions: read-out: inhibition against FLT3(ITD)
T1 sequence (P36888 564-993): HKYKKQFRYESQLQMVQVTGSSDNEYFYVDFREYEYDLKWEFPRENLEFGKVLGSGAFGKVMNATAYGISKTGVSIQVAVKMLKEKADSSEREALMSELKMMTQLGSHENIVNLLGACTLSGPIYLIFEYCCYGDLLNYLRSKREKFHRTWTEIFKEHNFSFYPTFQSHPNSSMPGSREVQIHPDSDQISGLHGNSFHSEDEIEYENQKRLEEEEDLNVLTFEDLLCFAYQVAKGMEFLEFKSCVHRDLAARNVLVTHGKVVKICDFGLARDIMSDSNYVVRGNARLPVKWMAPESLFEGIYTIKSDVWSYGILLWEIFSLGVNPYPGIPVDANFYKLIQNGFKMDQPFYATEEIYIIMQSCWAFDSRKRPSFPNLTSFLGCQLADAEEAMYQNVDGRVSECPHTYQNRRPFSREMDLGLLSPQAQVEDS

[5] = molecular target: ABL1 (T315I) (Homo sapiens, UniProt P00519, T315I); assay: Reaction Biology 33P-ATP kinase assay, ABL1; conditions: read-out: inhibition against ABL1(T315I)
[6] = molecular target: MNK2 (Homo sapiens, UniProt Q9HBH9); assay: biochemical; conditions: read-out: inhibition of MNK2
Chain of MNK2 (Q9HBH9 whole entry): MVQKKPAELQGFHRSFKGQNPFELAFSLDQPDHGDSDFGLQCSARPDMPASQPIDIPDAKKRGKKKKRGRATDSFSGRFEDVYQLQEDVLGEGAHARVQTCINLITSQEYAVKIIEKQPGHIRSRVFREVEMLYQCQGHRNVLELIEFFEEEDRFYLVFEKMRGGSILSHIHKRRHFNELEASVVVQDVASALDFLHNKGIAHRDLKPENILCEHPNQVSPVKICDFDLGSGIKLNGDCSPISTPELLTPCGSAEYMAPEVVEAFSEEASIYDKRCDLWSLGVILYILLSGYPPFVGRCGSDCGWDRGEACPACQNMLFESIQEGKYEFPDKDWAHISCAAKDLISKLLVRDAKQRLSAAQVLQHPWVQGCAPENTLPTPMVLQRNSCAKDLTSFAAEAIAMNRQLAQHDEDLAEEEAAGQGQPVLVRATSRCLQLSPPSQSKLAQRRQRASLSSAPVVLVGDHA

[7] = molecular target: c-SRC (Homo sapiens, UniProt P12931); assay: Reaction Biology 33P-ATP kinase assay, c-SRC; conditions: read-out: inhibition against c-Src
Chain of c-SRC (P12931 whole entry): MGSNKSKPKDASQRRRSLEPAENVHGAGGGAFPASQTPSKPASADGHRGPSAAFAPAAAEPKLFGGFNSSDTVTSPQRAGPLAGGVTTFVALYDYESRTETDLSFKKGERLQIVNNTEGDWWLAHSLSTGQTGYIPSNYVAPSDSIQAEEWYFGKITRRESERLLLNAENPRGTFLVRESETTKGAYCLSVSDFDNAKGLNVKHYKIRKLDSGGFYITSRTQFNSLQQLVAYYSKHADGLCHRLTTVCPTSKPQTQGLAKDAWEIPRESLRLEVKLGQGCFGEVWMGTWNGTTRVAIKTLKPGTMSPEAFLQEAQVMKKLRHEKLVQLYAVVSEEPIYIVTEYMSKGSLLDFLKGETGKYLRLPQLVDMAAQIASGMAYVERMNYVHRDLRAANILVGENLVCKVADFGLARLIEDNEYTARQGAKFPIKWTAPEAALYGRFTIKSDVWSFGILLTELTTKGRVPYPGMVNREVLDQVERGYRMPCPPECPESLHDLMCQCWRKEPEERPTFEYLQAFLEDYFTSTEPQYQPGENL

[8] = system: MOLM14; assay: CellTiter-Blue cell viability, MOLM14; format: cell-based; conditions: Homo sapiens, MOLM-14, 72 h, read-out: IC50 against MOLM14
[9] = molecular target: T2, FLT3 (D835Y) (Homo sapiens, UniProt P36888, D835Y); assay: Reaction Biology 33P-ATP kinase assay, FLT3; conditions: read-out: inhibition against FLT3(D835Y)
T2 sequence (P36888 27-993 D835Y): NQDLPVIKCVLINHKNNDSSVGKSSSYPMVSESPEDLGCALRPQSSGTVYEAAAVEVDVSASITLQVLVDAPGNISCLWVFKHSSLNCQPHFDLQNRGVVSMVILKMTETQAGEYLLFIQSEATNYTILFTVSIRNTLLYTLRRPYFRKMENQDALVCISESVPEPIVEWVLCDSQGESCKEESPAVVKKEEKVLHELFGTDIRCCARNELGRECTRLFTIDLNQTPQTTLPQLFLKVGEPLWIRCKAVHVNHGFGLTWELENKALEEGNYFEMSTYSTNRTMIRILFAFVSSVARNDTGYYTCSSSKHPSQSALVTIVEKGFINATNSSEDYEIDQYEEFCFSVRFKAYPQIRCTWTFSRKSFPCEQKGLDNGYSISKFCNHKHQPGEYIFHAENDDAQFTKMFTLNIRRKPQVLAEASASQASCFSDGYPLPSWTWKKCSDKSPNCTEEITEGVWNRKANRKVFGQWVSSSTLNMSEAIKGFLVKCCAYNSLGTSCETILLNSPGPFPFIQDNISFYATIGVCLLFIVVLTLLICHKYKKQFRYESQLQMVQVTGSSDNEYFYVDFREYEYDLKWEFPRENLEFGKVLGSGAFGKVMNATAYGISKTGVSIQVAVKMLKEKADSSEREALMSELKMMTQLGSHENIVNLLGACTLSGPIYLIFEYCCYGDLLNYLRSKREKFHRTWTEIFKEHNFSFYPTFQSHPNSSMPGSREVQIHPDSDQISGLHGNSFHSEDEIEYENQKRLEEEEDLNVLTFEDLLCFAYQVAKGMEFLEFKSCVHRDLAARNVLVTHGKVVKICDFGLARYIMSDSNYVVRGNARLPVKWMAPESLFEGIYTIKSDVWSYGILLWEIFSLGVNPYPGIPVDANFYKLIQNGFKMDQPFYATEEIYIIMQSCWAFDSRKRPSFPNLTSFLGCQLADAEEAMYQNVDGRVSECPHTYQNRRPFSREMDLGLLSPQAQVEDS

[10] = molecular target: c-Kit (Homo sapiens, UniProt P10721); assay: Reaction Biology 33P-ATP kinase assay, c-Kit; format: biochemical
Chain of c-Kit (P10721 26-976): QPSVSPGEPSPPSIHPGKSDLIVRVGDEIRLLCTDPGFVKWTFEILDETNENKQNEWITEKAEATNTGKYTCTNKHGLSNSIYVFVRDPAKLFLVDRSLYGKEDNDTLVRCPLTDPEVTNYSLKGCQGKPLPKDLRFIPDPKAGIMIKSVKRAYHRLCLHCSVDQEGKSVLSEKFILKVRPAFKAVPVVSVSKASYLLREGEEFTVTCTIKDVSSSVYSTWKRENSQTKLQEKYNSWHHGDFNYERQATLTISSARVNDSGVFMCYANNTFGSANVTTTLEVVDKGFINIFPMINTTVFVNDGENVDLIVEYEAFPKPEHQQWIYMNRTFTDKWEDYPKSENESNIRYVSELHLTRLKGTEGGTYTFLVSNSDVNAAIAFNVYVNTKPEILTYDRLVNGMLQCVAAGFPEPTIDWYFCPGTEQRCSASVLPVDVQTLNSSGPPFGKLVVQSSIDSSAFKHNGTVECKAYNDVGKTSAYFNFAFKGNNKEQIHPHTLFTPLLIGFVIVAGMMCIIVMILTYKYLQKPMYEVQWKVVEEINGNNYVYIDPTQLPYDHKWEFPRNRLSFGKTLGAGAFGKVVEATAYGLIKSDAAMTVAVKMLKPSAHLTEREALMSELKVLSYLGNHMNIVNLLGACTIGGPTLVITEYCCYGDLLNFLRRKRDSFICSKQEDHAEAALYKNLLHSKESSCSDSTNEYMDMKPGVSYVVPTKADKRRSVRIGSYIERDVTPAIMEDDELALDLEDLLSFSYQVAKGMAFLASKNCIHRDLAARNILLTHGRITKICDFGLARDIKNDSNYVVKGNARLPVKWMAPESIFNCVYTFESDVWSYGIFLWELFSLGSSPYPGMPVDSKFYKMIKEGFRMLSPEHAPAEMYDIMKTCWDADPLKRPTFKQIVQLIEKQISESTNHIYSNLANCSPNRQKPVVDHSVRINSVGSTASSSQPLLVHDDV

[11] = system: MOLM13-res; assay: CellTiter-Blue cell viability, MOLM13-res; format: cell-based; conditions: Homo sapiens, 72 h, read-out: IC50 against MOLM13-res
[12] = system: LC2/Ad; assay: CellTiter-Blue cell viability, LC2/Ad; format: cell-based; conditions: Homo sapiens, LC-2-ad, 72 h, read-out: IC50 against LC2/Ad
[13] = system: MOLM14-F691L; assay: CellTiter-Blue cell viability, MOLM14-F691L; format: cell-based; conditions: Homo sapiens, MOLM-14, 72 h, read-out: IC50 against MOLM14-F691L
[14] = system: MV-4-11; assay: CellTiter-Blue cell viability, MV-4-11; format: cell-based; conditions: Homo sapiens, MV4-11, 72 h, read-out: IC50 against MV-4-11
[15] = system: H520; assay: CellTiter-Blue cell viability, H520; format: cell-based; conditions: Homo sapiens, NCI-H520, 72 h, read-out: IC50 against H520
[16] = system: MOLM14-D835Y; assay: CellTiter-Blue cell viability, MOLM14-D835Y; format: cell-based; conditions: Homo sapiens, 72 h, read-out: IC50 against MOLM14-D835Y

SMILES | IC50 [1] | IC50 [2] | IC50 [3] | inhibition at 0.004 µM [4] | inhibition at 0.123 µM [6] | inhibition at 0.111 µM [7] | also measured
CN1CCN(Cc2ccc(NC(=O)c3cccc(C#Cc4cnc5cccnn45)c3)cc2C(F)(F)F)CC1 [HSL331, 3-(Imidazo[1,2-b]pyridazin-3-ylethynyl)-N-(4-((4-methylpiperazin-1-yl)methyl)-3-(trifluoromethyl)phenyl)benzamide] | 0.63 ± 0.002 nM | 2.86 ± 0.04 nM | 0.26 ± 0.002 nM |  |  |  | 
CN1CCN(Cc2ccc(C(=O)Nc3cncc(C#Cc4cnc5cccnn45)c3)cc2C(F)(F)F)CC1 [HSL338, N-(5-(Imidazo[1,2-b]pyridazin-3-ylethynyl)pyridin-3-yl)-4-((4-methylpiperazin-1-yl)methyl)-3-(trifluoromethyl)benzamide] | 1.4 ± 0.02 nM | 4.24 ± 0.05 nM | 0.45 ± 0.002 nM | 84% |  |  | 
CN1CCN(Cc2ccc(NC(=O)c3cncc(C#Cc4cnc5ccccn45)c3)cc2C(F)(F)F)CC1 [HSL381, 5-(Imidazo[1,2-a]pyridin-3-ylethynyl)-N-(4-((4-methylpiperazin-1-yl)methyl)-3-(trifluoromethyl)phenyl)nicotinamide] | 0.89 ± 0.005 nM | 4.24 ± 0.05 nM | 0.57 ± 0.003 nM | 91% | 84% |  | inhibition at 0.123 µM [5]: 73%
CN1CCN(Cc2ccc(NC(=O)c3cncc(C#Cc4cnc5ncccn45)c3)cc2C(F)(F)F)CC1 [HSL382, 5-(Imidazo[1,2-a]pyrimidin-3-ylethynyl)-N-(4-((4-methylpiperazin-1-yl)methyl)-3-(trifluoromethyl)phenyl)nicotinamide] | > 100 nM | > 100 nM |  |  |  |  | IC50 against KCL22 ([1]; CML cell line, 72 h treatment): inactive; IC50 against KCL22-IR ([2]; imatinib-resistant CML line, 72 h treatment): inactive; IC50 against K562 ([3]; CML cell line (ABL1), 72 h treatment): inactive
CN1CCN(Cc2ccc(NC(=O)c3cncc(C#Cc4cnc5cnccn45)c3)cc2C(F)(F)F)CC1 [HSL385, 5-(Imidazo[1,2-a]pyrazin-3-ylethynyl)-N-(4-((4-methylpiperazin-1-yl)methyl)-3-(trifluoromethyl)phenyl)nicotinamide] | 2.62 ± 0.06 nM | 17.2 ± 0.86 nM | 0.94 ± 0.002 nM |  | 72% |  | 
CN1CCN(Cc2ccc(NC(=O)c3cncc(C#Cc4cncc5nccn45)c3)cc2C(F)(F)F)CC1 [HSL407, 5-(Imidazo[1,2-a]pyrazin-5-ylethynyl)-N-(4-((4-methylpiperazin-1-yl)methyl)-3-(trifluoromethyl)phenyl)nicotinamide] | 2.93 ± 0.04 nM | 49.7 ± 2.5 nM | 1.83 ± 0.02 nM |  |  |  | 
CN1CCN(Cc2ccc(NC(=O)c3cncc(C#Cc4cnc5ccnn5c4)c3)cc2C(F)(F)F)CC1 [HSL412, N-(4-((4-Methylpiperazin-1-yl)methyl)-3-(trifluoromethyl)phenyl)-5-(pyrazolo[1,5-a]pyrimidin-6-ylethynyl)nicotinamide] | 28.1 ± 0.37 nM | > 100 nM | 28.1 ± 0.6 nM |  |  |  | 
Cc1ncc(C(=O)Nc2ccc(CN3CCN(C)CC3)c(C(F)(F)F)c2)cc1C#Cc1cnc2cccnn12 [HSL420, 5-(Imidazo[1,2-b]pyridazin-3-ylethynyl)-6-methyl-N-(4-((4-methylpiperazin-1-yl)methyl)-3-(trifluoromethyl)phenyl)nicotinamide] | 0.06 ± 0.002 nM | 0.46 ± 0.01 nM | 0.06 ± 0.002 nM |  |  | 32% | inhibition at 0.123 µM [5]: 83%
CN1CCN(Cc2ccc(NC(=O)c3cncc(C#Cc4cnc5cccnn45)c3)cc2C(F)(F)F)CC1 [HSN748, 5-(Imidazo[1,2-b]pyridazin-3-ylethynyl)-N-(4-((4-methylpiperazin-1-yl)methyl)-3-(trifluoromethyl)phenyl)nicotinamide] |  |  |  | 86% | 85% | < 10% | IC50 [8]: 0.25 nM; inhibition at 0.111 µM [9]: 87%; IC50 [10]: 96 ± 4.21 nM
Cc1ccc(C(=O)Nc2ccc(CN3CCN(C)CC3)c(C(F)(F)F)c2)cc1C#Cc1cnc2cccnn12 [ponatinib, reference compound] | 0.14 ± 0.003 nM | 0.66 ± 0.005 nM | 0.6 ± 0.002 nM | < 40% | 32% | 98% | IC50 [11]: 24.1 nM; IC50 [12]: 35.1 nM; IC50 [8]: 0.45 nM; IC50 [13]: 6.8 nM; IC50 [14]: 0.09 nM; IC50 [15]: 128 nM; IC50 [16]: 52.6 nM
